The record followed here is publication PMC5990611, “An in Vitro Assay of hERG K^+ Channel Potency for a New EGFR Inhibitor FHND004” (Frontiers in Pharmacology, 2018).

This series is described as follows: In vivo pharmacokinetic assay in male SD rats. To be noted: rat, serum, data not shown, read-out: maximum serum concentration (Cmax).

As to `C=CC(=O)Nc1cc(Nc2nccc(-c3cn(C)c4ccccc34)n2)c(OC)cc1N(C)CCN(C)C` [AZD9291], the Cmax was 220 nM.
